Data: article PMC10035947, “Development of novel anilinoquinazoline-based carboxylic acids as non-classical carbonic anhydrase IX and XII inhibitors” (Journal of Enzyme Inhibition and Medicinal Chemistry, 2023)

How the values were obtained:
[1] = molecular target: T1, hCA I (Homo sapiens, UniProt P00915); test: stopped flow CO2 hydrase assay; type: biochemical; settings: mean from 3 assays
T1 construct: made in house
Procedure: (§1) Carbonic anhydrase inhibition assay
(§2) The carbonic anhydrase catalyzed CO2 hydration actions for the quinazoline-based […]
(§3) Photophysics stopped-flow, as described previously. The enzymes are recombinant proteins prepared in our lab. Phenol red (at a concentration of 0.2 mM) has been used as indicator, working at the absorbance maximum of 557 nm, with 20 mM Hepes (pH 7.5) as buffer, and 20 mM Na2SO4 (for maintaining constant the ionic strength), following the initial rates of the CA- […]
(§4) 1.7 to 17 mM for the determination of the kinetic parameters and inhibition constants. For each […]
(§5) initial velocity. The uncatalyzed rates were determined in the same manner and subtracted from the total observed rates. Stock solutions of inhibitor (0.1 mM) were prepared in distilled-deionized water and dilutions up to 0.01 nM were done thereafter with the assay buffer. Inhibitor and enzyme solutions were preincubated together for 15 min at room temperature prior to assay, in order to allow for the formation of the E-I complex. The inhibition constants were obtained by non-linear least-squares methods using PRISM 3 and the Cheng-Prusoff equation, and represent the mean from at least three different determinations.

[2] = molecular target: T2, hCA IX (Homo sapiens, UniProt Q16790); test: stopped flow CO2 hydrase assay; type: biochemical
T2 construct: made in house
Procedure: as §1, §2, §3, §4, §5

[3] = molecular target: T3, hCA XII (Homo sapiens, UniProt O43570); test: stopped flow CO2 hydrase assay; type: biochemical
T3 construct: made in house
T3 sequence (O43570 25-354): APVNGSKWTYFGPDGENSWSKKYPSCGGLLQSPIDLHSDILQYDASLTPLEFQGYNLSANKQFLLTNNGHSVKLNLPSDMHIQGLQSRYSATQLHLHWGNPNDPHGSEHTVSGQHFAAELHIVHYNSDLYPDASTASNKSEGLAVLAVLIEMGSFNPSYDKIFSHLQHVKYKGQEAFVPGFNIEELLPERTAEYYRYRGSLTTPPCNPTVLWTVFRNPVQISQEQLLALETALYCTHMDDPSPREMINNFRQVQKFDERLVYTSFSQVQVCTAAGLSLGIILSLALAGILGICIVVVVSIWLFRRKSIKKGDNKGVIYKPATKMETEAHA
Procedure: as §1, §2, §3, §4, §5

[4] = molecular target: T4, hCA II (Homo sapiens, UniProt P00918); test: stopped flow CO2 hydrase assay; type: biochemical; settings: mean from 3 assays
T4 construct: made in house
Procedure: as §1
as §3, with “The carbonic anhydrase catalyzed CO2 hydration actions for the quinazoline-based carboxylic acid derivatives (6a-c, 7a-c and 8a-c) were assayed utilizing an instrument of Applied Photophysics” for “Photophysics”
as §5, with “1.7 to 17 mM for the determination of the kinetic parameters and inhibition constants. For each inhibitor at least six traces of the initial 5-10% of the reaction have been used for determining the initial” for “initial”

[5] = system: CCRF-CEM; test: NCI SRB assay; type: cell-based, human
[6] = system: HL-60(TB); test: NCI SRB assay; type: cell-based, human; settings: HL-60(TB)
[7] = system: HOP-62; test: NCI SRB assay; type: cell-based, human
[8] = system: NCI-H226; test: NCI SRB assay; type: cell-based, human
[9] = system: NCI-H522; test: NCI SRB assay; type: cell-based, human
[10] = system: HCT-15; test: NCI SRB assay; type: cell-based, human
[11] = system: HT29; test: NCI SRB assay; type: cell-based, human
[12] = system: KM12; test: NCI SRB assay; type: cell-based, human
[13] = system: SF-295; test: NCI SRB assay; type: cell-based, human
[14] = system: SNB-75; test: NCI SRB assay; type: cell-based, human
[15] = system: SK-MEL-5; test: NCI SRB assay; type: cell-based, human
[16] = system: UACC-62; test: NCI SRB assay; type: cell-based, human
[17] = system: OVCAR-3; test: NCI SRB assay; type: cell-based, human
[18] = system: SK-OV-3; test: NCI SRB assay; type: cell-based, human
[19] = system: CAKI-1; test: NCI SRB assay; type: cell-based, human
[20] = system: PC-3; test: NCI SRB assay; type: cell-based, human
[21] = system: DU-145; test: NCI SRB assay; type: cell-based, human
[22] = system: MDA-MB-468; test: NCI SRB assay; type: cell-based, human

T1 sequence (P00915 whole entry): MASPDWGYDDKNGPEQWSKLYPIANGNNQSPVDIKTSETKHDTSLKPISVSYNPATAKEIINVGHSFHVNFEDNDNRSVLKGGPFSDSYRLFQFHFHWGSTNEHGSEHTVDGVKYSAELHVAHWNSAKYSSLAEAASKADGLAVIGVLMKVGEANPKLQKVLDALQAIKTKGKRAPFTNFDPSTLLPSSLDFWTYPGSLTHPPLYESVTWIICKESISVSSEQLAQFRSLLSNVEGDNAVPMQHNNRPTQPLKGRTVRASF

## Cc1cccc(-c2nc(Nc3ccc(C(=O)O)cc3)c3ccccc3n2)c1 [8a, 4-((2-(m-Tolyl)quinazolin-4-yl)amino)benzoic acid]
[1]
  Ki: 87.7 µM
[2]; KI hCA I / KI hCA IX
  Selectivity ratio I/IX: 20.4
[2]; KI hCA II / KI hCA IX
  Selectivity ratio II/IX: 2.16
[2]; mean from 3 assays
  Ki: 4.3 µM
[3]; KI hCA I / KI hCA XII
  Selectivity ratio I/XII: 23.1
[3]; KI hCA II / KI hCA XII
  Selectivity ratio II/XII: 2.45
[3]; mean from 3 assays
  Ki: 3.8 µM
[4]
  Ki: 9.3 µM
[5]; 10 μM
  GI%: 25%
[5]; 1.00E-5 Molar
  Growth Percent: 74.58%
[6]; 10 μM
  GI%: – (Only GI% higher than 20% are shown)
[6]; 1.00E-5 Molar
  Growth Percent: 92.72%
[7]; HOP-62, 10 μM
  GI%: – (Only GI% higher than 20% are shown)
[7]; HOP-62, 1.00E-5 Molar
  Growth Percent: 95.14%
[8]; NCI-H226, 10 μM
  GI%: 52%
[8]; NCI-H226, 1.00E-5 Molar
  Growth Percent: 47.62%
[9]; NCI-H522, 10 μM
  GI%: – (Only GI% higher than 20% are shown)
[9]; NCI-H522, 1.00E-5 Molar
  Growth Percent: 87.55%
[10]; HCT-15, 10 μM
  GI%: 29%
[10]; HCT-15, 1.00E-5 Molar
  Growth Percent: 70.54%
[11]; HT29, 10 μM
  GI%: – (Only GI% higher than 20% are shown)
[11]; HT29, 1.00E-5 Molar
  Growth Percent: 91.72%
[12]; KM12, 10 μM
  GI%: 23%
[12]; KM12, 1.00E-5 Molar
  Growth Percent: 76.63%
[13]; SF-295, 10 μM
  GI%: 36%
[13]; SF-295, 1.00E-5 Molar
  Growth Percent: 63.92%
[14]; SNB-75, 10 μM
  GI%: – (Only GI% higher than 20% are shown)
[14]; SNB-75, 1.00E-5 Molar
  Growth Percent: 100.40%
[15]; SK-MEL-5, 10 μM
  GI%: 29%
[15]; SK-MEL-5, 1.00E-5 Molar
  Growth Percent: 71.03%
[16]; UACC-62, 10 μM
  GI%: – (Only GI% higher than 20% are shown)
[16]; UACC-62, 1.00E-5 Molar
  Growth Percent: 104.52%
[17]; OVCAR-3, 10 μM
  GI%: – (Only GI% higher than 20% are shown)
[17]; OVCAR-3, 1.00E-5 Molar
  Growth Percent: 82.69%
[18]; SK-OV-3, 10 μM
  GI%: – (Only GI% higher than 20% are shown)
[18]; SK-OV-3, 1.00E-5 Molar
  Growth Percent: 108.70%
[19]; CAKI-1, 10 μM
  GI%: – (Only GI% higher than 20% are shown)
[19]; CAKI-1, 1.00E-5 Molar
  Growth Percent: 94.53%
[20]; PC-3, 10 μM
  GI%: – (Only GI% higher than 20% are shown)
[20]; PC-3, 1.00E-5 Molar
  Growth Percent: 83.31%
[21]; DU-145, 10 μM
  GI%: – (Only GI% higher than 20% are shown)
[21]; DU-145, 1.00E-5 Molar
  Growth Percent: 87.83%
[22]; MDA-MB-468, 10 μM
  GI%: – (Only GI% higher than 20% are shown)
[22]; MDA-MB-468, 1.00E-5 Molar
  Growth Percent: 113.23%
